Experimental data: patent publication US11395867B2, “Degradable removable implant for the sustained release of an active compound” (Janssen Sciences Ireland Unlimited Company, priority 2009, dated 2022)
Where “and” joins values, the source holds several entries; their conditions need not be identical. Identical values can stand only once.

Key:
[1] = In vivo testing of laser drilled melt extruded tube containing two sets of microparticles formulated with F108, plasma concentrations; set-up: species or system Sprague-Dawley rats; conditions: rat, subcutaneous laser drilled extruded tube implant, TMC278 109 mg/kg, compound 1 78 mg/kg, individual animals 1-4
Description: The laser drilled melt extruded tube was prepared as described above in example 10. The microparticles were prepared by the spinning disc method using a 3% (w/w) polymer/acetone solution. Two sets of microparticles were prepared. The target composition of one set was 70% (w/w) TMC278, 20% (w/w) PLGA 50/50 (Lakeshore Biomaterials IVHFIP=0.79 dl/g), and 10% (w/w) F108 (BASF). The target composition of the other set of microparticles was 70% (w/w) compound 1, 20% (w/w) PLGA 50/50 (Lakeshore Biomaterials IVHFIP=0.18 dl/g), and 10% (w/w) F108. The F108 was added to the polymer solution.
The size range of the microparticles was determined by randomly selecting a sample of microparticles and placing them on the stage of an optical microscope and using a ruler to measure the various sizes of the microparticles in the randomly selected sample. The size range of the TMC278 and compound 1 microparticles was 10-100 microns and 20-100 microns, respectively. Microparticles were mixed as described in example 9. Approximately 133 mg of the microparticle mixture was introduced into tubes using a spatula to transfer the contents.
The prepared tubes were implanted into the subcutaneous space on the back of four male Sprague-Dawley rats weighing between 250-350 grams. The dose of TMC278 and compound 1 was 109 mg/kg and 78 mg/kg, respectively. The tail vein was sampled at pre-determined time points. Blood samples were immediately centrifuged to extract the plasma, plasma was analyzed for compound 1 and TMC278 by LC/MS/MS. The lower limit of quantitation for TMC278 and compound 1 was 0.4 ng/ml and 2 ng/ml, respectively.

[2] = In vivo testing of electrostatically spun tube containing two sets of microparticles, plasma concentrations; set-up: species or system Sprague-Dawley rats; conditions: rat, subcutaneous electrospun tube implant, TMC278 139 mg/kg, compound 1 64 mg/kg, individual animals 1-4
Description: Tubes were electrostatically spun from a 100 mg/ml polydioxanone (IVHFIP=1.99 dl/g) hexafluoroisopropanol solution. A 4 mm mandrel was used to provide a consistent inner diameter of 4 mm. The rotational speed of the mandrel was 400 rpm, the charging voltage range was 20/−10 kV, and the pump flow rate was 10 ml/hour. The resulting wall thickness was 500 microns. Fiber diameters were 1-2 microns and the average pore size formed from the network of fibers was 20 microns as determined by Scanning Electron Microscopy.
The microparticles were prepared by the spinning disc method using a polymer/acetone solution with a concentration ranging from 3-4% (w/w). Two sets of microparticles were prepared. The target composition of one set was 70% (w/w) TMC278 and 30% (w/w) PLGA 50/50 (Lakeshore Biomaterials IVHFIP=0.79 dl/g). The target composition of the other set of microparticles was 70% (w/w) of compound 1 (=compound 14 of WO01/25240) and 30% (w/w) PLGA 50/50 (Lakeshore Biomaterials IVHFIP=0.18 dl/g). This compound 1 has the following structure and will be referred to hereinafter as compound 1:
Approximately 133 mg of the microparticle mixture was introduced into the electrostatically prepared tubes using a spatula.
(§1) The prepared tubes were implanted into the subcutaneous space on the back of four male Sprague-Dawley rats weighing between 250-350 grams. The dose of TMC278 was 139 mg/kg and the dose of compound 1 was 64 mg/kg. The tail vein was sampled at pre-determined time points. Blood samples were immediately centrifuged to extract the plasma, plasma was analyzed for compound 1 and TMC278 by LC/MS/MS. The lower limit of quantitation was 0.4 ng/ml and 2 ng/ml for TMC278 and compound 1, respectively.

[3] = In vivo testing of laser drilled melt extruded tube containing two sets of microparticles, plasma concentrations; conditions: rat, subcutaneous laser drilled extruded tube implant, TMC278 139 mg/kg, compound 1 64 mg/kg, individual animals 1-4
Description: Tubes with inner diameter of 4.5 mm were extruded from polydioxanone (IVHFIP=1.99 dl/g) using a ¾ inch single screw extruder fitted with a tube die. The dimensions of the tube were monitored using an in-line laser diameter measuring system and maintained using a puller. Following the extrusion the tubes were laser drilled. In preparation for the laser drilling a mask design was prepared that located the holes 260 microns apart from one another. Scanning electron microscopy was used to size the inner and outer diameter of the holes. […] The microparticles were prepared as described in Example 9. Approximately 133 mg of the microparticle mixture was introduced into the tubes.
as §1, with “plasma, and” for “plasma,”, “quantitation for TMC278 and compound 1” for “quantitation”, “2.0 ng/ml,” for “2 ng/ml for TMC278 and compound 1,”

Structure (SMILES): CC(C)CN(C[C@@H](O)[C@H](Cc1ccccc1)NC(=O)O[C@H]1CO[C@H]2OCC[C@H]21)S(=O)(=O)c1ccc2c(c1)OCO2 [compound 1]
- plasma concentration ([1]; 3 hour): 59.1 ng/mL and 26.9 ng/mL and 39.2 ng/mL and 17.3 ng/mL
- plasma concentration ([1]; 1 day): 6.13 ng/mL and 2.54 ng/mL and 4.36 ng/mL and 2.98 ng/mL
- plasma concentration ([1]; 3 day): <2 ng/mL
- plasma concentration ([1]; 7 day): 2.89 ng/ml and <2 ng/ml (2×)
- plasma concentration ([1]; 14 day): 8.25 ng/ml and <2 ng/ml (2×) and 6.27 ng/ml
- plasma concentration ([1]; 28 day): 22.1 ng/mL and 6.03 ng/mL and 12.3 ng/mL and 16.3 ng/mL
- plasma concentration ([1]; 35 day): 13.1 ng/mL and 7.25 ng/mL and 10.7 ng/mL and 15.4 ng/mL
- concentration at 3 day ([1]; male, Sprague-Dawley, plasma, 3 day): 3.36 ng/mL
- concentration at 7 day ([1]; male, Sprague-Dawley, plasma, 7 day): < 2 ng/mL
- plasma concentration ([2]; 3 hour): 2.37 ng/mL and 4.08 ng/mL and 4.46 ng/mL
- plasma concentration ([2]; 1 day): 12.6 ng/mL and 9.95 ng/mL and 10.5 ng/mL
- plasma concentration ([2]; 3 day): 15.1 ng/mL and 14.2 ng/mL and 15.9 ng/mL
- plasma concentration ([2]; 7 day): 13.6 ng/mL and 13.2 ng/mL and 13.0 ng/mL
- plasma concentration ([2]; 14 day): 7.17 ng/mL and 12.7 ng/mL and 16.6 ng/mL and 9.89 ng/mL
- plasma concentration ([2]; 28 day): 6.07 ng/mL and 8.86 ng/mL and 12.4 ng/mL and 10.5 ng/mL
- plasma concentration ([2]; 35 day): 5.75 ng/mL and 12.0 ng/mL and 20.0 ng/mL and 11.6 ng/mL
- concentration at 3 h ([2]; male, Sprague-Dawley, plasma, subcutaneous, 3 hour): 3.93 ng/mL
- concentration at 1 day ([2]; male, Sprague-Dawley, plasma, subcutaneous, 1 day): 6.39 ng/mL
- concentration at 3 day ([2]; male, Sprague-Dawley, plasma, subcutaneous, 3 day): 10 ng/mL
- concentration at 7 day ([2]; male, Sprague-Dawley, plasma, subcutaneous, 7 day): 9.95 ng/mL
- plasma concentration ([3]; 3 hour): 2.88 ng/mL and 16.4 ng/mL and 27.0 ng/mL and 16.5 ng/mL
- plasma concentration ([3]; 1 day): <2 ng/mL and 4.20 ng/mL and 9.25 ng/mL and 3.71 ng/mL
- plasma concentration ([3]; 3 day): <2 ng/ml (2×) and 3.35 ng/ml and 6.06 ng/ml
- plasma concentration ([3]; 7 day): 3.44 ng/mL and 3.13 ng/mL and <2 ng/mL
- plasma concentration ([3]; 14 day): 2.70 ng/mL and 2.26 ng/mL and 3.66 ng/mL
- plasma concentration ([3]; 28 day): <2 ng/mL and 4.32 ng/mL and 13.0 ng/mL and 4.30 ng/mL
- plasma concentration ([3]; 35 day): <2 ng/mL and 3.56 ng/mL and 13.0 ng/mL and 2.57 ng/mL
- concentration at 7 day ([3]; male, in vivo, 7 day): < 2 ng/mL
- concentration at 14 day ([3]; male, in vivo, 14 day): < 2 ng/mL
